# From PMC5584945, “Evaluation of robenidine analog NCL195 as a novel broad-spectrum antibacterial agent” (PLoS ONE, 2017)
# Tests used:
# [1] = system: vancomycin-resistant enterococci (VRE); assay: MIC, broth micro-dilution (CLSI); type: cell-based, enterococci (porcine isolates)
# [2] = system: panel of mammalian cell lines (Caco-2, HEL 299, Hep G2, MDBK, MCF7); assay: In vitro cytotoxicity, WST-1, all cell lines tested; type: cell-based; details: lower bound over all the cell lines tested
# Excerpt: (§1) In order to ensure minimal off target mammalian cell cytotoxicity, we assayed NCL812, NCL195 and NCL219 for in vitro cytotoxicity using a panel of adherent mammalian cell lines: Caco-2 (human colorectal adenocarcinoma cell line), HEL 299 (non-cancerous human lung fibroblast cell line), Hep G2 (human hepatocellular carcinoma cell line), MDBK (normal bovine kidney cell line) and MCF7 (human mammary gland adenocarcinoma cell line). Cell lines were maintained in Dulbecco’s Modified Eagle’s Medium (DMEM; […] After 24 h incubation, media was removed, washed once with medium without antibiotics and fresh medium supplemented with 10% (vol/vol) FBS was added. […] Following exposure for 24 h, WST-1 reagent was added to each well at a final concentration of 10%. […] The IC50 value for each compound against each cell line was determined via non-linear regression (three parameters) using GraphPad Prism v6 software. The robustness of assays was confirmed with selected cell lines (Hep G2 and MDBK) seeded onto a 96–well Microwell Nunclon Delta Surface plate (Thermo Scientific Nunc; Cat No: 136101) at 5 × 10^4 cells per well.
# [3] = LogD by gradient HPLC chromatographic method; type: physicochemical; details: pH 7.4
# Hep G2 = assay: Real-time cell viability, RealTime-Glo MT; type: cell-based, human; details: 2 or 8 μg/ml, up to 20 h post-treatment
# S. pneumoniae D39 [4] = assay: Minimum bactericidal concentration (MBC); type: cell-based; details: Streptococcus pneumoniae, 99.9% colony count reduction, read-out: MBC
# MDBK = assay: In vitro cytotoxicity, WST-1; type: cell-based, bovine; details: Bos taurus, 24 h exposure, read-out: IC50 values ± SEM
# Excerpt: as §1
# S. pneumoniae D39 [5] = assay: Membrane potential, DiOC2(3) fluorescence; type: cell-based, Streptococcus pneumoniae; details: 16 μg/ml, pre-incubated 5 min; versus untreated and ampicillin
# Procedure: (§2) To further examine the mechanism underlying the perturbation of the cell membrane of S. pneumoniae or S. aureus by the NCL compounds, the membrane potential of the cells was measured by fluorescence spectrometry using (DiOC2(3), essentially as described previously. Briefly, […] cells from an overnight HBA plate were grown in Todd-Hewitt broth supplemented with 1% yeast extract (THY) at 37°C, 5% CO2 until A600 nm = 0.5. […] The cuvette was then placed in a LS 55 Fluorescence Spectrometer (PerkinElmer) set at Ex. 488 nm/Em. 620 nm, with excitation and emission slit widths at 5 nm and 7 nm, respectively). […] All assays were performed at least twice.
# S. aureus ATCC49775 = assay: Membrane potential, DiOC2(3) fluorescence; type: cell-based, Staphylococcus aureus; details: 16 μg/ml, pre-incubated 5 min; versus untreated and ampicillin
# Procedure: as §2
# [6] = system: Enterococcus faecalis ATCC 29212; assay: MIC, broth micro-dilution (CLSI), control strain; type: cell-based
# Procedure: MICs for NCL812 and its analogs (serial two-fold dilutions commencing at 128 μg/ml) were determined (in duplicate) in round bottom 96-well microtitre trays (Sarstedt 82.1582.001), using the broth micro-dilution method recommended by the Clinical and Laboratory Standards Institute (CLSI). […] MIC50, MIC90 and MIC range for NCL812, NCL195 and NCL219 were calculated against each S. pneumoniae, S. aureus or VRE isolate. To assess the potential activity of NCL195 against Gram-negative bacteria, MICs against Acinetobacter spp, E. coli, K. pneumoniae, P. aeruginosa, Proteus spp and Neisseria meningitidis were performed in the presence or absence of 0.08 mM-20 mM EDTA in a standard checkerboard assay.
smiles,measurement,setting,value
"Cc1ccc(/C=N/Nc2cc(N/N=C/c3ccc(C)cc3)nc(N)n2)cc1 [NCL195, 4,6-bis(2-((E)-4-methylbenzylidene)hydrazinyl)pyrimidin-2-amine]",MIC90,"[1]; Enterococcus, VRE, S3 Table isolates, absence of FBS",4 µg/mL
same,MIC,"[1]; Enterococcus, VRE, VRE 1 (49 FR), 10% FBS",16 µg/mL
same,MIC,"[1]; Enterococcus, VRE, VRE 1 (49 FR), absence of FBS",4 µg/mL
same,MIC,"[1]; Enterococcus, VRE, VRE 2 (53 FR), 10% FBS",16 µg/mL
same,MIC,"[1]; Enterococcus, VRE, VRE 2 (53 FR), absence of FBS",2 µg/mL
same,MIC,"[1]; Enterococcus, VRE, VRE 3 (55 FR), 10% FBS",16 µg/mL
same,MIC,"[1]; Enterococcus, VRE, VRE 3 (55 FR), absence of FBS",2 µg/mL
same,MIC,"[1]; Enterococcus, VRE, VRE 4 (57 FR), 10% FBS",16 µg/mL
same,MIC,"[1]; Enterococcus, VRE, VRE 4 (57 FR), absence of FBS",2 µg/mL
same,MIC,"[1]; Enterococcus, VRE, VRE5 (58 FR), 10% FBS",32 µg/mL
same,MIC,"[1]; Enterococcus, VRE, VRE5 (58 FR), absence of FBS",4 µg/mL
same,MIC,"[1]; Enterococcus, VRE, VRE 6 (59 FR), 10% FBS",16 µg/mL
same,MIC,"[1]; Enterococcus, VRE, VRE 6 (59 FR), absence of FBS",4 µg/mL
same,MIC,"[1]; Enterococcus, VRE, VRE 7 (270 G), 10% FBS",32 µg/mL
same,MIC,"[1]; Enterococcus, VRE, VRE 7 (270 G), absence of FBS",4 µg/mL
same,MIC,"[1]; Enterococcus, VRE, VRE 8 (277 G), 10% FBS",32 µg/mL
same,MIC,"[1]; Enterococcus, VRE, VRE 8 (277 G), absence of FBS",4 µg/mL
same,MIC,"[1]; Enterococcus, VRE, VRE 9 (61 FR), 10% FBS",16 µg/mL
same,MIC,"[1]; Enterococcus, VRE, VRE 9 (61 FR), absence of FBS",4 µg/mL
same,MIC,"[1]; Enterococcus, VRE, VRE 10 (62 FR), 10% FBS",16 µg/mL
same,MIC,"[1]; Enterococcus, VRE, VRE 10 (62 FR), absence of FBS",4 µg/mL
same,MIC,"[1]; Enterococcus, VRE, VRE 11 (284 G), 10% FBS",16 µg/mL
same,MIC,"[1]; Enterococcus, VRE, VRE 11 (284 G), absence of FBS",4 µg/mL
same,MIC,"[1]; Enterococcus, VRE, VRE 12 (290 G), 10% FBS",16 µg/mL
same,MIC,"[1]; Enterococcus, VRE, VRE 12 (290 G), absence of FBS",2 µg/mL
same,MIC,"[1]; Enterococcus, VRE, VRE 13 (251 G), 10% FBS",16 µg/mL
same,MIC,"[1]; Enterococcus, VRE, VRE 13 (251 G), absence of FBS",2 µg/mL
same,MIC,"[1]; Enterococcus, VRE, VRE 14 (252 G), 10% FBS",32 µg/mL
same,MIC,"[1]; Enterococcus, VRE, VRE 14 (252 G), absence of FBS",2 µg/mL
same,MIC,"[1]; Enterococcus, VRE, VRE 15 (63 FR), 10% FBS",16 µg/mL
same,MIC,"[1]; Enterococcus, VRE, VRE 15 (63 FR), absence of FBS",2 µg/mL
same,MIC,"[1]; Enterococcus, VRE, VRE 16 (60 FR), 10% FBS",16 µg/mL
same,MIC,"[1]; Enterococcus, VRE, VRE 16 (60 FR), absence of FBS",2 µg/mL
same,MIC,"[1]; Enterococcus, VRE, VRE 17 (45 FR), 10% FBS",32 µg/mL
same,MIC,"[1]; Enterococcus, VRE, VRE 17 (45 FR), absence of FBS",2 µg/mL
same,MIC,"[1]; Enterococcus, VRE, VRE 18 (69 W), 10% FBS",16 µg/mL
same,MIC,"[1]; Enterococcus, VRE, VRE 18 (69 W), absence of FBS",2 µg/mL
same,MIC,"[1]; Enterococcus, VRE, VRE 19 (70 W), 10% FBS",16 µg/mL
same,MIC,"[1]; Enterococcus, VRE, VRE 19 (70 W), absence of FBS",2 µg/mL
same,MIC,"[1]; Enterococcus, VRE, VRE 20 (78 W), 10% FBS",32 µg/mL
same,MIC,"[1]; Enterococcus, VRE, VRE 20 (78 W), absence of FBS",4 µg/mL
same,MIC range,"[1]; S3 Table isolates, 10% FBS",16 to 32 µg/mL
same,MIC range,"[1]; S3 Table isolates, absence of FBS",2 to 4 µg/mL
same,IC50,[2],> 10 µg/mL
same,chromatographic logD,[3],4.5
same,Effect on cell viability (real-time),Hep G2,no measurable effect on cell viability
same,MBC,S. pneumoniae D39 [4],8 µg/mL
same,IC50,MDBK,17.3 ± 0.2 µg/mL
same,Effect on generated membrane potential,S. pneumoniae D39 [5],large reduction in the magnitude of the generated membrane potential
same,Effect on generated membrane potential,S. aureus ATCC49775,large reduction in the magnitude of the generated membrane potential
same,MIC,"[6]; ATCC29212, 10% FBS",32 µg/mL
same,MIC,"[6]; ATCC29212, absence of FBS",4 µg/mL
